# Measurements: PMC12040969, “Design, synthesis, in silico studies, and apoptotic antiproliferative activity of novel thiazole-2-acetamide derivatives as tubulin polymerization inhibitors” (Frontiers in Chemistry, 2025)
# Where “and” joins values, the source holds several entries; their conditions need not be identical. Equal entries are not always repeated. Where two headings read alike, the source gives them in different places.
# Assays:
# tubulin [1] = tested on: tubulin; parameters: method as in El-Abd et al., 2022; conditions: ref El-Abd et al., 2022; read-out: Tubulin polymerization IC50; cited from earlier work
# tubulin [2] = assay: Tubulin polymerization inhibition assay (Cytoskeleton kit);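 as to all read-outs here: Cell-free tubulin polymerization read by fluorescent reporter enhancement over a 30 min reaction, with the compound-free kit control taken as 100% activity and inhibition relative to it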; conditions: for Tub. enzyme inhibition assay %inhibition: 30 min, codes 522-537 run; for Tub. enzyme inhibition assay K. Activity: control = 120, codes 522-537 run
# [3] = Cell viability assay (MTT), normal cells; type: cell-based; conditions: human, MCF-10A normal mammary gland epithelial cells, four-day incubation
# prostatic - PC-3 = assay: Antiproliferative assay (MTT) PC-3
# [4] = tested on: four human cancer cell lines (HCT-116, PC-3, MCF-7, MDAMB-231); assay: Antiproliferative assay, mean of four cell lines (GI50); conditions: Homo sapiens, read-out: GI50 (average IC50)
# [5] = tested on: Caspase-3 in MDAMB-231 cancer cell line; assay: Caspase-3 activation assay; type: cell-based, human; conditions: MDAMB-231 cells; for Caspase-3 Fold change: relative to untreated control
# Text: (§1) […]. Supplementary Appendix A provides more information.
# [6] = tested on: Bcl-2 in MDAMB-231 cancer cell line; assay: Bcl-2 level assay; type: cell-based, human; conditions: MDAMB-231 cells
# Text: as §1
# - MDAMB-231 = assay: Antiproliferative assay (MTT) MDAMB-231
# pancreatic - MDAMB-231 = assay: Antiproliferative assay (MTT) MDAMB-231; conditions: read-out: Antiproliferative activity IC50 ± SEM (µM) MDAMB-231; MDAMB-231, MTT
# [7] = tested on: Caspase-9 in MDAMB-231 cancer cell line; assay: Caspase-9 activation assay; type: cell-based, human; conditions: MDAMB-231 cells
# Description: […]. Compound 10o was the least efficient derivative as caspase-9 activators (0.90 ng/mL).
# as §1
# [8] = tested on: Bax in MDAMB-231 cancer cell line; assay: Bax level assay; type: cell-based, human; conditions: MDAMB-231 cells
# Text: as §1
# colon - HCT-116 = assay: Antiproliferative assay (MTT) HCT-116
# breast - MCF-7 = assay: Antiproliferative assay (MTT) MCF-7
smiles,measurement,setting,value
"Cc1ccc(/C=C/C(=O)c2sc(SCC(=O)Nc3nccs3)nc2C)cc1 [Compound 13d, (E)-2-((4-methyl-5-(3-(p-tolyl)acryloyl)thiazol-2-yl)thio)-N-(thiazol-2-yl)acetamide]",Tub. enzyme inhibition assay %inhibition,tubulin [2]; conc 0.01 (unit not given),6.76%
same,Tub. enzyme inhibition assay K. Activity,tubulin [2]; conc 0.01 (unit not given),111.89
same,Tub. enzyme inhibition assay %inhibition,tubulin [2]; conc 0.1 (unit not given),21%
same,Tub. enzyme inhibition assay K. Activity,tubulin [2]; conc 0.1 (unit not given),94.779
same,Tub. enzyme inhibition assay %inhibition,tubulin [2]; conc 1 (unit not given),47.4%
same,Tub. enzyme inhibition assay K. Activity,tubulin [2]; conc 1 (unit not given),63.07
same,Tub. enzyme inhibition assay %inhibition,tubulin [2]; conc 10 (unit not given),68.5%
same,Tub. enzyme inhibition assay K. Activity,tubulin [2]; conc 10 (unit not given),37.815
same,Tub. enzyme inhibition assay %inhibition,tubulin [2]; conc 100 (unit not given),87%
same,Tub. enzyme inhibition assay K. Activity,tubulin [2]; conc 100 (unit not given),15.546
same,IC50,"tubulin [2]; read-out: Tubulin inhibition IC50 ± SEM, triplicate for each tested concentration",3.68 ± 0.14 µM
same,Tub. (IC50) IC50±SD,"tubulin [2]; supplement raw data, lab codes",1.53 ± 0.06 mg/L
same,"viability at 96 h, 50 µM",[3],90%
same,Average of Relative viability of cells (%),"prostatic - PC-3; PC-3, 1.56 µM",97.1%
same,Average of Relative viability of cells (%),"prostatic - PC-3; PC-3, 3.125 µM",83.3%
same,Average of Relative viability of cells (%),"prostatic - PC-3; PC-3, 6.25 µM",57.8%
same,Average of Relative viability of cells (%),"prostatic - PC-3; PC-3, 12.5 µM",35.6%
same,Average of Relative viability of cells (%),"prostatic - PC-3; PC-3, 25 µM",20.5%
same,Average of Relative viability of cells (%),"prostatic - PC-3; PC-3, 50 µM",19.4%
same,Average of Relative viability of cells (%),"prostatic - PC-3; PC-3, 100 µM",7.6%
same,IC50,"prostatic - PC-3; read-out: Antiproliferative activity IC50 ± SEM (µM) PC-3, PC-3, MTT",9 ± 0.8 µM
same,IC50,[4],8 µM
same,Caspase-3 Conc,[5],690 ± 5 pg/mL
same,Caspase-3 Fold change,[5],11 fold
same,Caspase-3 Fold change,[5]; listed as 13g,~10 fold
same,Bcl-2 Conc,[6],0.80 ng/mL
same,Bcl-2 Fold reduction,[6]; relative to untreated control,6 fold
same,Average of Relative viability of cells (%),"- MDAMB-231; MDAMB-231, 1.56 µM",71.2%
same,Average of Relative viability of cells (%),"- MDAMB-231; MDAMB-231, 3.125 µM",57.9%
same,Average of Relative viability of cells (%),"- MDAMB-231; MDAMB-231, 6.25 µM",45.6%
same,Average of Relative viability of cells (%),"- MDAMB-231; MDAMB-231, 12.5 µM",35.2%
same,Average of Relative viability of cells (%),"- MDAMB-231; MDAMB-231, 25 µM",15.6%
same,Average of Relative viability of cells (%),"- MDAMB-231; MDAMB-231, 50 µM",11.3%
same,Average of Relative viability of cells (%),"- MDAMB-231; MDAMB-231, 100 µM",7.5%
same,IC50,pancreatic - MDAMB-231,5 ± 0.3 µM
same,Caspase-9 Conc,[7],1.50 ng/mL and 1.50 ± 0.10 ng/mL
same,Caspase-9 Fold change,[7]; relative to untreated control,15 fold
same,Bax Conc,[8],320 pg/mL and 320 ± 8 pg/mL
same,Bax Fold change,[8]; relative to untreated control,40 fold
same,Average of Relative viability of cells (%),"colon - HCT-116; HCT-116, 1.56 µM",90.6%
same,Average of Relative viability of cells (%),"colon - HCT-116; HCT-116, 3.125 µM",69.8%
same,Average of Relative viability of cells (%),"colon - HCT-116; HCT-116, 6.25 µM",63.9%
same,Average of Relative viability of cells (%),"colon - HCT-116; HCT-116, 12.5 µM",32.7%
same,Average of Relative viability of cells (%),"colon - HCT-116; HCT-116, 25 µM",26.5%
same,Average of Relative viability of cells (%),"colon - HCT-116; HCT-116, 50 µM",17.4%
same,Average of Relative viability of cells (%),"colon - HCT-116; HCT-116, 100 µM",9.2%
same,IC50,"colon - HCT-116; read-out: Antiproliferative activity IC50 ± SEM (µM) HCT-116, HCT-116, MTT",9 ± 0.9 µM
same,Average of Relative viability of cells (%),"breast - MCF-7; MCF-7, 1.56 µM",88.6%
same,Average of Relative viability of cells (%),"breast - MCF-7; MCF-7, 3.125 µM",71.2%
same,Average of Relative viability of cells (%),"breast - MCF-7; MCF-7, 6.25 µM",45.2%
same,Average of Relative viability of cells (%),"breast - MCF-7; MCF-7, 12.5 µM",32.4%
same,Average of Relative viability of cells (%),"breast - MCF-7; MCF-7, 25 µM",24.5%
same,Average of Relative viability of cells (%),"breast - MCF-7; MCF-7, 50 µM",17.1%
same,Average of Relative viability of cells (%),"breast - MCF-7; MCF-7, 100 µM",8.3%
same,IC50,"breast - MCF-7; read-out: Antiproliferative activity IC50 ± SEM (µM) MCF-7, MCF-7, MTT",7 ± 0.4 µM
COc1cc(-c2csc(NC(=O)CNc3ccc([N+](=O)[O-])cc3)n2)cc(OC)c1OC [IV],IC50,tubulin [1],2 ± 0.12 µM
